According to US20050153943A1, “Methods of simultaneously treating mucositis and fungal infection” (priority 2002, published 2005):
Values after ≈ are worked out from the molar mass of the structure shown. Where two headings read alike, the source gives them in different places.

Columns and labels:
[1] = system: BALB/c 3T3 (CCL-163) cells; assay: 3T3 phototoxicity assay (Neutral Red uptake, with/without UVA); details: 5 J/cm^2 UVA vs dark; for PIF 1 (photoirritancy factor, IC50(-UVA)/IC50(+UVA), earlier software): 1 = no measurable phototoxicity, >5 phototoxic potential; for MPE (mean photo effect): <0.1 nonphototoxin, 0.1 to <0.15 probable, >=0.15 clear phototoxin
[2] = system: Aspergillus fumigatus ATCC 1022; assay: Fungal growth on SABHI agar containing CMT (Example 38); format: cell-based; details: 25 μg/ml, 30° C., growth grade
Description: (§1) The following fungi were inoculated onto potato dextrose agar (PDA) from stock cultures and incubated aerobically at 30° C.: Aspergillus [NT] 1022, Penicillium sp. (laboratory isolate), Candida albicans, ATCC 14053, and Rhizopus sp. […] The conidia were suspended in 0.9% saline and the turbidity was adjusted to match a 0.5 MacFarland standard (equivalent to approximately 1.5×10^8 cells). Candida albicans was suspended in saline and adjusted to 0.5 MacFarland in a similar manner. These suspensions were diluted 1:100 in sterile 0.9% saline. SABHI Agar (Difco) pH 7.0 was prepared in 100 ml amounts and sterilized at 121° C. for 15 min. […] SABHI Agar plates of each CMT and SAHBI agar without CMT using dimethylsulphoxide (DMSO) as a control were inoculated with 10 μl of conidia suspension of Aspergillus fumigatus, Penicillium sp. and Rhizopus sp. and 10 μl suspension of Candida albicans prepared as described above. The plates were then incubated aerobically for 24 hour and for 48 hours at 30° C. The results are set forth in Table 1 (24 hr. incubation) and Table 2 (48 hr. incubation). [table]

[3] = system: Candida albicans, ATCC 14053; assay: as above; format: cell-based; details: 25 μg/ml, 30° C., growth grade
Description: as §1

[4] = system: Penicillium sp. (laboratory isolate); assay: as above; format: cell-based; details: 25 μg/ml, 30° C., growth grade
Description: as §1

Rhizopus sp. = assay: as above; format: cell-based; details: 25 μg/ml, 30° C., growth grade
Description: as §1

Penicillium Species = assay: IC50 and MIC on microplate agar gels (Example 40); format: cell-based; details: agar gel, 0.25-4.00 μg/ml, 30° C., 24 hours, NI = no detectable inhibition
Description: (§2) Each drug was dissolved in DMSO (1.0 mg/ml) as a stock solution and stored at −20° C. Just prior to use, each stock solution was thawed and diluted in DMSO to produce 6 different 100× concentrations. Potato dextrose agar was dissolved in distilled water (39 g/L) and sterilized at […] (250° F.) for 15 min. The agar solution was mixed with each drug (in a water bath at 60° C.) to make a series of final concentrations, i.e. 0.00, 0.25, 0.50, 1.00, 2.00, 4.00 μg/ml. The mixtures were then transferred to 24-well plates (1 ml/well). After the gel had formed, the fungus in PBS (spore count=1-5×10^4/ml) was inoculated by pipetting 10 μl onto each gel. The plates were incubated at 30° C. for different times, depending on the requirement of each species, e.g. 24 hours for Penicillium, Rhizopus, Tricothecium, Ulocladium, Absidia, Aspergilus, Caindida, Cunninghamella, 3 days for Scedosporium, and 5 days for Fonsecae and Phialophora.
(§3) “*” indicates better than or similar results to Amphotericin B. “NI” indicates no detectable inhibition.

Scedosporium Apiospermum = assay: IC50 and MIC on microplate agar gels (Example 40); format: cell-based; details: agar gel, 0.25-4.00 μg/ml, 30° C., 3 days, NI = no detectable inhibition
Description: as §2, §3

Tricothecium Species = assay: IC50 and MIC on microplate agar gels (Example 40); format: cell-based; details: agar gel, 0.25-4.00 μg/ml, 30° C., 24 hours, NI = no detectable inhibition
Description: as §2, §3

Ulocladium Species = assay: IC50 and MIC on microplate agar gels (Example 40); format: cell-based; details: agar gel, 0.25-4.00 μg/ml, 30° C., 24 hours, NI = no detectable inhibition
Description: as §2, §3

[5] = system: 11 different species of fungi; assay: Summary of Example 40 over the whole panel; format: cell-based; details: 11 tested fungi, up to 4.00 μg/ml
Description: as §2, §3

[6] = system: eleven different species of fungi; details: cited from earlier work
Absidia Species = assay: IC50 and MIC on microplate agar gels (Example 40); format: cell-based; details: Absidia; agar gel, 0.25-4.00 μg/ml, 30° C., 24 hours; NI = no detectable inhibition; read-out: IC50
Description: as §2, §3

Aspergilus Fumigatus = assay: IC50 and MIC on microplate agar gels (Example 40); format: cell-based; details: agar gel, 0.25-4.00 μg/ml, 30° C., 24 hours; NI = no detectable inhibition; read-out: IC50
Description: as §2, §3

Candida Albicans = assay: IC50 and MIC on microplate agar gels (Example 40); format: cell-based; details: Candida albicans; agar gel, 0.25-4.00 μg/ml, 30° C., 24 hours; NI = no detectable inhibition; read-out: IC50
Description: as §2, §3

Cunninghamella Species = assay: IC50 and MIC on microplate agar gels (Example 40); format: cell-based; details: Cunninghamella; agar gel, 0.25-4.00 μg/ml, 30° C., 24 hours; NI = no detectable inhibition; read-out: IC50
Description: as §2, §3

Fonsecae Species = assay: IC50 and MIC on microplate agar gels (Example 40); format: cell-based; details: 120 h; agar gel, 0.25-4.00 μg/ml, 30° C., 5 days; NI = no detectable inhibition; read-out: IC50
Description: as §2, §3

Phialophora Verrucosa = assay: IC50 and MIC on microplate agar gels (Example 40); format: cell-based; details: Phialophora verrucosa, 120 h; agar gel, 0.25-4.00 μg/ml, 30° C., 5 days; NI = no detectable inhibition; read-out: IC50
Description: as §2, §3

Rhizopus Species = assay: IC50 and MIC on microplate agar gels (Example 40); format: cell-based; details: Rhizopus; agar gel, 0.25-4.00 μg/ml, 30° C., 24 hours; NI = no detectable inhibition; read-out: IC50
Description: as §2, §3

## CN(C)[C@@H]1C(O)=C(C(N)=O)C(=O)[C@@]2(O)C(O)=C3C(=O)c4c(O)cccc4[C@@](C)(O)[C@H]3C[C@@H]12 [Tetracycline, reference compound]
[1]
  PIF 1 (photoirritancy factor, IC50(-UVA)/IC50(+UVA), earlier software): 5.38
  MPE (mean photo effect): 0.340

## CC1c2cccc(O)c2C(=O)C2=C(O)C3(O)C(=O)C(C(N)=O)=C(O)CC3C(O)C21 (stereo not shown) [COL 8, 4-dedimethylaminodoxycycline]
[2]
  Growth at 25 μg/ml compared to control at 48 hours: 4 (Level of growth in the absence of anti-fungal agent (control).)
[3]
  Growth at 25 μg/ml compared to control at 24 hrs incubation: 4 (Level of growth in the absence of anti-fungal agent (control).)
  Growth at 25 μg/ml compared to control at 48 hours: 4 (Level of growth in the absence of anti-fungal agent (control).)
[4]
  Growth at 25 μg/ml compared to control at 24 hrs incubation: 3 (25% reduction in growth of colonies compared to control.)
  Growth at 25 μg/ml compared to control at 48 hours: 4 (Level of growth in the absence of anti-fungal agent (control).)
Rhizopus sp.
  Growth at 25 μg/ml compared to control at 24 hrs incubation: 4 (Level of growth in the absence of anti-fungal agent (control).)
  Growth at 25 μg/ml compared to control at 48 hours: 4 (Level of growth in the absence of anti-fungal agent (control).)
Penicillium Species
  IC50: 2.0 mg/L (≈ 4.98 µM)
  MIC: >4 mg/L
Scedosporium Apiospermum
  IC50: 2.0 mg/L (≈ 4.98 µM)
  MIC: >4 mg/L
Tricothecium Species
  IC50: 0.7 mg/L (≈ 1.74 µM)
  MIC: 2.0 mg/L (≈ 4.98 µM)
Ulocladium Species
  IC50: 2.0 mg/L (≈ 4.98 µM)
  MIC: >4 mg/L
[5]
  Antifungal activity over the panel (summary in words): had effects on some of these fungi
[6]
  Anti-fungal activity in vitro (Lu et al.): weak or no anti-fungal activity

## C[C@H]1c2cccc(O)c2C(=O)C2=C(O)[C@]3(O)C(=O)C(C(N)=O)=C(O)[C@@H](N(C)C)[C@@H]3[C@@H](O)[C@@H]21 [Doxycycline, 6α-deoxy-5-hydroxytetracycline, reference compound]
Absidia Species
  IC50: > 4 mg/L
Aspergilus Fumigatus
  IC50: > 4 mg/L
Candida Albicans
  IC50: > 4 mg/L
Cunninghamella Species
  IC50: > 4 mg/L
Fonsecae Species
  IC50: > 4 mg/L
Penicillium Species; Penicillium, read-out: IC50
  IC50: > 4 mg/L
Phialophora Verrucosa
  IC50: > 4 mg/L
Rhizopus Species
  IC50: > 4 mg/L
Scedosporium Apiospermum; Scedosporium apiospermum, 72 h, read-out: IC50
  IC50: > 4 mg/L
Tricothecium Species; read-out: IC50
  IC50: 4 mg/L (≈ 9 µM)
Tricothecium Species; read-out: MIC
  MIC: > 4 mg/L
Ulocladium Species; read-out: IC50
  IC50: > 4 mg/L

## 2-CONHCH2-pyrrolidin-1-yl-4-dedimthylaminodoxycycline [COL 807]
[1]
  PIF 1 (photoirritancy factor, IC50(-UVA)/IC50(+UVA), earlier software): 40.4
  MPE (mean photo effect): 0.382

## CN(C)c1ccc2c(c1O)C(=O)C1=C(O)C3(O)C(=O)C(C(N)=O)=C(O)CC3CC1C2 (stereo not shown) [COL 306, 9-dimethylamino-6-demethyl-6-deoxy-4-dedimethylaminotetracycline]
[2]
  Growth at 25 μg/ml compared to control at 24 hrs incubation: 1 (75% reduction in growth in colonies compared to control.)
  Growth at 25 μg/ml compared to control at 48 hours: 4 (Level of growth in the absence of anti-fungal agent (control).)
[3]
  Growth at 25 μg/ml compared to control at 24 hrs incubation: 3 (25% reduction in growth of colonies compared to control.)
  Growth at 25 μg/ml compared to control at 48 hours: 4 (Level of growth in the absence of anti-fungal agent (control).)
[4]
  Growth at 25 μg/ml compared to control at 24 hrs incubation: 3 (25% reduction in growth of colonies compared to control.)
  Growth at 25 μg/ml compared to control at 48 hours: 4 (Level of growth in the absence of anti-fungal agent (control).)
Rhizopus sp.
  Growth at 25 μg/ml compared to control at 24 hrs incubation: 4 (Level of growth in the absence of anti-fungal agent (control).)
  Growth at 25 μg/ml compared to control at 48 hours: 4 (Level of growth in the absence of anti-fungal agent (control).)

## CN(C)c1cc([N+]#N)c(O)c2c1CC1CC3CC(O)=C(C(N)=O)C(=O)C3(O)C(O)=C1C2=O.O=S(=O)([O-])O (stereo not shown) [Example 4, 4-Dedimethylamino-7-dimethylamino-6-demethyl-6-deoxy-9-diazoniumtetracycline sulfate]
[2]
  Growth at 25 μg/ml compared to control at 24 hrs incubation: 0 (complete inhibition of growth.)
  Growth at 25 μg/ml compared to control at 48 hours: 1 (75% reduction in growth in colonies compared to control.)
[3]
  Growth at 25 μg/ml compared to control at 24 hrs incubation: 1 (75% reduction in growth in colonies compared to control.)
  Growth at 25 μg/ml compared to control at 48 hours: 4 (Level of growth in the absence of anti-fungal agent (control).)
[4]
  Growth at 25 μg/ml compared to control at 24 hrs incubation: 3 (25% reduction in growth of colonies compared to control.)
  Growth at 25 μg/ml compared to control at 48 hours: 0 (complete inhibition of growth.)
Rhizopus sp.
  Growth at 25 μg/ml compared to control at 24 hrs incubation: 4 (Level of growth in the absence of anti-fungal agent (control).)
  Growth at 25 μg/ml compared to control at 48 hours: 4 (Level of growth in the absence of anti-fungal agent (control).)
